Source: patent US8609723B2 (Beijing Dingguochangsheng Biotech., Co., Ltd., priority 2008, dated 2013)

Columns and labels:
Assay type in all cases: in vivo
S-180 sarcoma cells [1] = assay: Antitumor experiment of tumor S-180-bearing mice; conditions: 7-day dosage by single administration, 7 days
Text: During the experiment, the mice were inoculated with S-180 sarcoma cells (×10^7) in armpits. […] Seven days later, the mice were sacrificed by decollation. The tumors were removed, and the mice and the tumors were weighed separately.

S-180 sarcoma cells [2] = assay: Survival experiment of tumor-bearing mice; conditions: S-180-bearing mice, 7-day dosage by single administration; 95% confidence interval 12.8~20.2 days
Procedure: During the experiment, the mice were inoculated with S-180 sarcoma cells (×10^5) in armpits, and the next day the administration begins. The survival rate was recorded for each group.

serum corticosterone = assay: Determination of the content of serum corticosterone (chronic stress model); conditions: stressed rats, day after 21-day stress
Text: (§1) The rats in the normal control group were raised normally under a condition without any stimulation except for weighing body weight, measuring body temperature, and subjected to sugar test. All of other groups were subjected to stimulations of same type and same strength. During the experiment, different types of stimulations were applied in an unpredictable manner, and the same type of stimulation was enhanced each time.
(§2) The chronic stress course was 20 days in total, once per day, from 9:00 AM to 2:00 PM. The stress protocol was shown as follows: horizontally shaking at a high speed for 45 min; nipping tails (1 cm from the tail root): 1 min; depriving of water for 24 h; forbidding moving for 1.5 h; fasting for 24 h; stimulating with ice water (water temperature: 10° C.) for 5 min; electric shocking (1 mA, time course: is, 1 shock/min) the bottoms of feet for 30 min; changing cages and raising separately for 24 h; forbidding moving for 2 h; nipping tails (1 cm from the root of tail) for 1 min; depriving of water for 24 h; horizontally shaking at a high speed for 1.5 h; fasting for 24 h; nipping tails (1 cm from the tail root): 1 min; electric shocking (1 mA, time course: 1 s, 1 shock/min) the bottoms of feet for 40 min; stimulating with ice water for 5 min; changing cages and raising separately for 24 h; horizontally shaking at a high speed for 60 min; electric shocking (1 mA, time course: 1 s, 1 shock/min) the bottoms of feet for 50 min; depriving of water for 24 h; forbidding moving for 2.5 h; and 24 h social isolation.
In this experiment, the content of serum corticosterone was measured by a competitive method, with its mechanism shown as follow: antigens in samples and enzyme-labeled antigens compete to bind antibodies in a solid phase. The more antigens exist in samples, the less enzyme-labeled antigens bind to the solid phase, thereby resulting in a fainter coloration.
On the next day after the end of the 21-day stress period, rats were sacrificed by decollation, and 5˜10 ml whole blood was collected. A portion of the collected whole blood was kept at room temperature for 20 min, followed by centrifugation at 1000 rpm for 10 min. Serum was then separated and stored at −80° C. The serum corticosterone detection kit was used for such detection.

[3] = test system: chronically stressed rats; assay: Sugar water test of rats (chronic stress model); conditions: table title says (%)
Text: as §1, §2
Before this experiment, animals were trained to adapt to drink sugar water in a to quite room. Two bottles were placed simultaneously into each cage. For the first 24 h, these two bottles were both filled with 1% sugar water; and for the next 24 h, one of them was filled with 1% sugar water and the other was filled with pure water. Then after 23-hour water deprivation, the animals were tested for basic sugar water/pure water consumption. One bottle of 1% sugar water and one bottle of pure water were provided to each rat simultaneously. One hour later, the two bottles were weighed, and the total liquid consumption, sugar water consumption, pure water consumption, and the sugar water preference=sugar water consumption/total liquid consumption×100% were calculated, respectively. The experiment was performed after continuous administration of curcumin for 14 days.

male ICR mice = assay: Forced swimming test of mice; conditions: 18.4 mg/kg single administration, vs control group
Procedure: The mice were forced to swim on Days 3, 7 and 14 after administration, except that such experiment was not performed for the curcumin group on Day 14.
Twenty four hours before the formal test, the mice were placed into a round glass container (height: 25 cm, diameter: 10 cm) filled with water (depth: 10 cm) with a temperature of 24±1° C., and forced to conduct swim training for 15 min. Twenty four hours later, the mice were placed into the round glass container filled with water (depth: 10 cm) again and forced to swim for 6 min. The accumulative immobile time within the last 4 min was observed and recorded for each mouse. The immobile time is intended to mean the period within which the mouse stops to struggle, floats in the water and keeps immobile, or only makes a few slight movements that are necessary to keep its head floating on the surface of water.

[4] = test system: chronically stressed rats; assay: Forced swimming test of rats (chronic stress model); conditions: vs model control group
Text: as §1, §2
Please see FIG. 7. 24 hours before the formal test, rats were placed into a round glass container (height: 40 cm, diameter: 18 cm) filled with water (depth: 23 cm) with a temperature of 24±1° C., and forced to conduct swim training for 15 min. […] The accumulative immobile time within the last 4 min was observed and recorded for each rat. The immobile time is intended to mean the period within which the rat stops to struggle, floats in the water and keeps immobile, or only makes a few slight movements that are necessary to keep its head floating on the surface of water.

[5] = 4.6 mg/kg, the values are: sugar water preference

For “curcumin decanoate [long acting curcumin]”, the “inhibitory rate of tumors” value (S-180 sarcoma cells [1]; high dosage group) was 50.1%, the “inhibitory rate of tumors” value (S-180 sarcoma cells [1]; low dosage group) was 28.5% and the “inhibitory rate of tumors” value (S-180 sarcoma cells [1]; medium dosage group) was 57.8%. For the same substance, the medium survival time (S-180 sarcoma cells [2]) was 17.5 days, the serum corticosterone (serum corticosterone; 4.6 mg/kg once every 7 days) was 239.5 ± 33.7 nmol/L and the serum corticosterone (serum corticosterone; 9.2 mg/kg once every 7 days) was 222.9 ± 30.6 nmol/L. It also gave a serum corticosterone (serum corticosterone; 18.4 mg/kg once every 7 days) of 199.6 ± 28.0 nmol/L, a Sugar water volume after stress [3, 5] of 54.1 ± 4.7% and a Sugar water volume before stress [3, 5] of 60.2 ± 9.2%. For the same substance, the “Sugar water volume after stress” value ([3]; 9.2 mg/kg) was 72.8 ± 3.1 %, the Sugar water volume before stress ([3]; 9.2 mg/kg, the values are: sugar water preference) was 60.4 ± 9.2% and the “Sugar water volume after stress” value ([3]; 18.4 mg/kg) was 71.6 ± 2.3 %. For the same substance, the Sugar water volume before stress ([3]; 18.4 mg/kg, the values are: sugar water preference) was 66.8 ± 8.6%, the “reduced the accumulative immobile time (forced swimming, mice)” value (male ICR mice; 3 days after administration) was 62.1% and the “reduced the accumulative immobile time (forced swimming, mice)” value (male ICR mice; 7 days after administration) was 74.7%. For the same substance, the “reduced the accumulative immobile time (forced swimming, mice)” value (male ICR mice; 14 days after administration) was 37.8%, the “reduced the accumulative immobile time of the forced swimming test” value ([4]; 4.6 mg/kg once every 7 days) was 37.6% and the “reduced the accumulative immobile time of the forced swimming test” value ([4]; 9.2 mg/kg once every 7 days) was 49.4%. The “reduced the accumulative immobile time of the forced swimming test” value ([4]; 18.4 mg/kg once every 7 days) was 58.9%.
